Assay results reported in the supplement of paper PMC10307832.

Tests used:
Assay in all cases: relative viability (nuclei count vs DMSO), 5 days (fraction); higher = more cells survive
[1] = compound: CC1=CC(=NN1)NC2=CC(=NC(=N2)/C=C/C3=CC=CC=C3)N4CCN(CC4)C + CC(=O)Nc1cccc(-n2c(=O)n(C3CC3)c(=O)c3c(Nc4ccc(I)cc4F)n(C)c(=O)c(C)c32)c1 [Trametinib] (partner 0.02 µM)
Method in brief: (§1)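 Lung cancer cell lines in 1536-well plates got either a single drug or a fixed anchor-drug dose together with five library-drug doses (not always all listed) in √10 steps, by pin tool, on the day after seeding. Nuclei were counted after 5 days, and relative viability is the treated-to-vehicle ratio of nuclei counts. Values are medians of duplicate plates.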

[2] = compound: CC1=CC(=NN1)NC2=CC(=NC(=N2)/C=C/C3=CC=CC=C3)N4CCN(CC4)C + Cc1nc(NC(=O)N2CCC[C@H]2C(N)=O)sc1-c1ccnc(C(C)(C)C(F)(F)F)c1 [Alpelisib] (partner 2 µM)
Method in brief: as §1

Obatoclax + Dasatinib = compound: COC1=CC(c2cc3ccccc3[nH]2)=N/C1=C\c1[nH]c(C)cc1C [Obatoclax] + Cc1nc(Nc2ncc(C(=O)Nc3c(C)cccc3Cl)s2)cc(N2CCN(CCO)CC2)n1 [Dasatinib] (partner 0.075 µM)
Method in brief: as §1

Bortezomib + Vorinostat = compound: CC(C)C[C@H](NC(=O)[C@H](Cc1ccccc1)NC(=O)c1cnccn1)B(O)O [Bortezomib] + O=C(CCCCCCC(=O)Nc1ccccc1)NO [Vorinostat] (partner 1 µM)
Method in brief: as §1

Cell Line	relative viability ([1]; first compound 0.08 µM)	relative viability ([1]; first compound 0.253 µM)	relative viability ([1]; first compound 0.8 µM)	relative viability ([1]; first compound 2.53 µM)	relative viability ([1]; first compound 8 µM)	relative viability ([2]; first compound 0.08 µM)	relative viability ([2]; first compound 0.253 µM)	relative viability ([2]; first compound 0.8 µM)	relative viability ([2]; first compound 2.53 µM)	relative viability ([2]; first compound 8 µM)	relative viability (Obatoclax + Dasatinib; first compound 0.01 µM)	relative viability (Obatoclax + Dasatinib; first compound 0.03162 µM)	relative viability (Obatoclax + Dasatinib; first compound 0.1 µM)	relative viability (Obatoclax + Dasatinib; first compound 0.3162 µM)	relative viability (Obatoclax + Dasatinib; first compound 1 µM)	relative viability (Bortezomib + Vorinostat; first compound 0.0002 µM)	relative viability (Bortezomib + Vorinostat; first compound 0.000632 µM)	relative viability (Bortezomib + Vorinostat; first compound 0.002 µM)	relative viability (Bortezomib + Vorinostat; first compound 0.006325 µM)	relative viability (Bortezomib + Vorinostat; first compound 0.02 µM)
NCI-H1437	0.532	0.621	0.577	0.272	0.223	1.02	1.01	0.881	0.972	0.285	0.559	0.295	0.384	0.355	0.445	0.782	0.875	0.555	0.219	0.172
NCI-H1651	0.801	0.83	0.832	0.758	0.395	0.816	0.919	1.15	0.558	0.146	0.563	0.376	0.372	0.293	0.187	0.568	0.571	0.534	0.587	0.134
NCI-H1666	0.834	0.761	0.875	0.854	0.563	0.999	1.07	0.817	0.501	0.183	0.819	0.809	0.727	0.496	0.418	1.03	1.04	1.11	0.539	0.5
NCI-H1734	0.628	0.601	0.56	0.41	0.121	0.601	0.695	0.692	0.375	0.189	0.493	0.287	0.427	0.375	0.2	0.832	0.845	0.635	0.115	0.0944
NCI-H1755	0.78	0.728	0.716	0.66	0.389	0.9	1.07	0.887	0.456	0.155	0.425	0.402	0.335	0.44	0.397	0.813	0.644	0.748	0.245	0.208
NCI-H1793	0.405	0.402	0.356	0.167	0.119	0.679	0.758	0.654	0.398	0.124	0.404	0.405	0.321	0.395	0.418	0.689		0.682	0.381	0.125
NCI-H1915	0.299	0.181	0.285	0.21	0.106	1.07	1.07	0.977	0.806	0.324	0.314	0.271	0.318	0.329	0.282	0.514	0.531	0.555	0.286	0.0313
NCI-H1944	0.433	0.429	0.37	0.318	0.239	0.816	0.995	0.759	0.568	0.304	0.206	0.198	0.198	0.242	0.223	0.563	0.546	0.633	0.333	0.148
NCI-H1975	0.343	0.333	0.4	0.254	0.105	0.59	0.655	0.42	0.141	0.109	0.439	0.389		0.351	0.153	0.661	0.655	0.154	0.123	0.135
NCI-H1993	0.506	0.541	0.408	0.616	0.509	0.63		0.581	0.61	0.493	0.616	0.549	0.748	0.499	0.395	0.894	0.987	0.605	0.258	0.266
NCI-H2009	0.309	0.22	0.215	0.139	0.0702	1.09	1.19	1.16	1.13	0.241	0.297	0.367	0.252	0.208	0.197	0.745	0.735	0.703	0.0608	0.0437
NCI-H2023	0.522	0.649	0.449	0.0864	0.0663	0.482	0.645	0.626	0.417	0.0558	0.518	0.548	0.53	0.412	0.194	0.813	0.423	0.618	0.078	0.0655
NCI-H2085	0.594	0.48	0.535	0.261	0.214	0.874	0.952	1.07	0.741	0.301	0.256	0.205	0.508	0.256	0.226	0.753	0.78	0.83	0.255	0.217
NCI-H2087	0.155	0.18	0.151	0.072	0.0577	1.11	1.04	1.07	0.965	0.135	0.837	0.747	0.723	0.361	0.135	0.465	0.886	0.555	0.0577	0.0279
NCI-H2126	0.57	0.534	0.555	0.516	0.346	0.776	0.802	0.76	0.674	0.377	0.675	0.538	0.524	0.613	0.536	0.693	0.875	0.751	0.641	0.478
NCI-H2170	0.932	0.916	0.91	0.671	0.355	0.765	0.861	0.668	0.494	0.147	0.626	0.617	0.528	0.529	0.677	0.746	0.722	0.972	0.173	0.121
